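Method: 48-hour compound exposure of cells in 96-well plates, five concentrations, linear interpolation of endpoints. Here, GI50 denotes the concentration required for 50% inhibition of growth. TGI denotes the concentration required for complete inhibition of growth.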
Columns and labels:
Experiment in all cases: NCI-60 cell line screen, 48 h
A498 renal = system: A498 renal
BT-549 breast = system: BT-549 breast
IGROV1 ovarian = system: IGROV1 ovarian
K-562 leukemia = system: K-562 leukemia
OVCAR-5 ovarian = system: OVCAR-5 ovarian
PC-3 prostate = system: PC-3 prostate
SNB-75 CNS = system: SNB-75 CNS
HOP-62 NSCLC = system: HOP-62 NSCLC
SR leukemia = system: SR leukemia
RXF 393 renal = system: RXF 393 renal

Structure (SMILES) | TGI (A498 renal) | TGI (BT-549 breast) | TGI (IGROV1 ovarian) | TGI (K-562 leukemia) | TGI (OVCAR-5 ovarian) | TGI (PC-3 prostate) | TGI (SNB-75 CNS) | TGI (HOP-62 NSCLC) | TGI (SR leukemia) | TGI (RXF 393 renal) | GI50 (IGROV1 ovarian) | GI50 (OVCAR-5 ovarian) | GI50 (A498 renal) | GI50 (HOP-62 NSCLC) | GI50 (K-562 leukemia) | GI50 (SNB-75 CNS) | GI50 (BT-549 breast) | GI50 (PC-3 prostate) | GI50 (RXF 393 renal)
O=C(/C=C/c1ccccc1)CCc1c(O)c2ccccc2oc1=O | > 100 µM | > 100 µM | > 100 µM | > 100 µM | > 100 µM | > 100 µM | > 100 µM |  |  |  |  |  |  |  |  |  |  |  | 
COc1cc(C2(C)SCCCS2)c(I)c(OC)c1OC | > 100 µM |  | > 100 µM | > 100 µM | > 100 µM |  | > 100 µM | > 100 µM | > 100 µM |  |  |  |  |  |  |  |  |  | 
Cc1ccc(C)c2c1CCc1cc3ccccc3nc1-2 | > 100 µM |  | > 100 µM | > 100 µM | > 100 µM |  | > 100 µM | > 100 µM |  |  |  |  |  |  |  |  |  |  | 
c1ccc(-c2cnc3nc4ccccc4nc3n2)cc1 | 27.1 µM | 29 µM | 17.5 µM | > 100 µM | 83.1 µM |  | 22.8 µM | 65.3 µM | 4.81 µM |  |  |  |  |  |  |  |  |  | 
COc1cc(CC2CC(c3ccc4c(c3)OCO4)OC2=O)cc(OC)c1OC (centres undefined) | > 100 µM |  |  | > 100 µM | > 100 µM | > 100 µM | > 100 µM | > 100 µM | > 100 µM | > 100 µM |  |  |  |  |  |  |  |  | 
CCC1(CC)C(=O)[N-]C(=O)[N-]C1=O.[Au+].[Au+].c1ccc([PH+](c2ccccc2)c2ccccc2)cc1.c1ccc([PH+](c2ccccc2)c2ccccc2)cc1 |  |  | 2.3 µM |  | 3.06 µM |  |  |  |  |  | 1.03 µM | 1.68 µM |  |  |  |  |  |  | 
C[C@@H](c1ccccc1)N(CC#N)C1CCC[C@H]1O (some centres undefined) | > 100 µM |  | > 100 µM | > 100 µM |  |  | > 100 µM | > 100 µM |  | > 100 µM |  |  |  |  |  |  |  |  | 
COC(=O)/C(=N/O)C(C(=O)OC)C(=O)C(=O)Nc1c(Cl)cc(C)cc1S(=O)(=O)O (centres undefined) | > 100 µM |  | > 100 µM | > 100 µM | > 100 µM |  | > 100 µM | > 100 µM | 42.8 µM | > 100 µM |  |  |  |  |  |  |  |  | 
C/C=C/C(=O)[O-].N.N.N.N.N.[Co+3].[O-][Cl+3]([O-])([O-])[O-] | > 100 µM |  | > 100 µM | > 100 µM | > 100 µM |  | > 100 µM | > 100 µM |  |  | > 100 µM | > 100 µM | > 100 µM | > 100 µM | > 100 µM | 84.7 µM |  |  | 
O=C(O)c1oc2cccc3c2c1CCC3 | > 100 µM |  | > 100 µM | > 100 µM | > 100 µM |  | > 100 µM | > 100 µM | > 100 µM | > 100 µM |  |  |  |  |  |  |  |  | 
CCC(=O)OC1=CN2C(=NC(c3ccc(N)cc3)=CC2c2cc(OC)c(OC)c(OC)c2)S1 (centres undefined) | 20.8 µM | 19.4 µM | 6.63 µM | > 100 µM | 17.1 µM | 42.9 µM | 23.3 µM | 15.1 µM |  | 7.98 µM | 2.31 µM | 4.04 µM | 5.3 µM | 4.79 µM | 3.47 µM | 5.12 µM | 4.57 µM | 6.04 µM | 2.3 µM
COc1cc(/C=C\c2cc(OC)c(OC)c(OC)c2)cc(NS(=O)(=O)c2cccc(Cl)c2)c1OC | 0.0798 µM | 2.46 µM | > 100 µM | > 100 µM | > 100 µM | > 100 µM | > 100 µM | > 100 µM |  | > 100 µM | 0.0887 µM | 0.641 µM | 0.0218 µM | 3.16 µM | 0.0383 µM | 0.0298 µM | 0.0338 µM | 0.0452 µM | 0.338 µM
CN(C)CCNc1c2c(c(NCCN(C)C)c3c(CO)c[nH]c13)C(=O)c1ccccc1C2=O | 34.7 µM | 23.5 µM | > 40.7 µM | > 100 µM | 33.5 µM | 26.8 µM | 22.6 µM | 7.29 µM |  | 12.5 µM | 2.49 µM | 12.7 µM | 18.1 µM | 1.02 µM | 3.47 µM | 6.38 µM | 8.23 µM | 2.6 µM | 3.83 µM
C(#Cc1ccccc1C#Cc1ccccn1)c1ccccn1 | 34.6 µM | 45.2 µM |  | 27.1 µM | 40.5 µM | 30.2 µM | 42.6 µM | > 100 µM |  | 24.4 µM |  | 17.2 µM | 18 µM | 25.6 µM | 7.02 µM | 18.5 µM | 23.6 µM | 13.5 µM | 7.71 µM
O=C(O)Cc1cc(=O)[nH]c2c1C(=O)CCC2 |  |  | > 100 µM | > 100 µM | > 100 µM |  |  |  | > 100 µM | > 100 µM |  |  |  |  |  |  |  |  | 
COC(=O)C1=C(c2cc(OC)c(OC)c(OC)c2)O[C@H](c2ccc3c(c2)OCO3)[C@H]1COC(C)=O | 48.6 µM |  | > 100 µM | 91.8 µM | > 100 µM |  | > 100 µM | > 100 µM | 72.6 µM |  |  |  |  |  |  |  |  |  | 
CCCCCCCCCCCCCCC(O)C1CCC(C(O)CCC(O)CCCCCC(O)CC2=CC(C)OC2=O)O1 (centres undefined) | 20.5 µM |  | 18.6 µM | 3.68 µM | 20.3 µM |  | 8.88 µM | 7.77 µM |  |  |  |  |  |  |  |  |  |  | 
COc1ccc(N2C(=O)C(N3C(=O)C=CC3=O)C2C=O)cc1 (centres undefined) | > 100 µM |  | > 100 µM | > 100 µM | > 100 µM |  | > 100 µM | > 100 µM | > 100 µM |  |  |  |  |  |  |  |  |  | 
O=C1C2=C(c3ccccc31)C(c1ccc(Cl)cc1)NC(=S)N2 (centres undefined) | > 100 µM |  | 42.6 µM | 40.2 µM | > 100 µM |  | 34 µM | > 100 µM |  |  |  |  |  |  |  |  |  |  | 
CCCCN(CCCC)C(=O)C(=O)CC(=O)/C=C/c1ccccc1 | > 100 µM |  | > 100 µM | > 100 µM | > 100 µM |  | > 100 µM | > 100 µM | > 100 µM | > 100 µM |  |  |  |  |  |  |  |  | 
O=C1C2=C(c3ccccc31)C(c1ccc(F)cc1)N1C(=O)CCSC1=N2 (centres undefined) | > 100 µM |  | > 100 µM | > 100 µM | > 100 µM |  | > 100 µM | > 100 µM |  |  |  |  |  |  |  |  |  |  | 

— PubChem BioAssay (NCI)
